Publication PMC4154066 (Chemical research in toxicology, 2013)

Tests used:
[1] = system: HepG2 cells; experiment: cells; assay type: cell-based, Human; details: for Compound potency (IC50) LDH Release 5 h: HepG2, 5 h treatment; for Compound potency (IC50) LDH Release 5 h / Compound potency (IC50) LDH Release 1 h: mean ± SD, 3 independent experiments; for Compound potency (IC50) LDH Release 1 h: HepG2, 1 h treatment
[2] = system: HepG2 cells; experiment: Oxygen consumption rate; assay type: cell-based, Human; details: for Relative percentage OCR 30 Sec: HepG2, 30 sec after compound at its MMP IC50; for Relative percentage OCR 30 Sec / Relative percentage OCR 1 h: basal OCR = 100%, mean ± SD; for Relative percentage OCR 1 h: HepG2, 1 h after compound at its MMP IC50; for Effect on OCR / FCCP-uncoupled OCR (in words): HepG2, compound at its MMP IC50, 30 sec and 1 h, then FCCP
[3] = system: caspase 3/7; details: HepG2, 16 h; cited from earlier work
[4] = system: caspase 9; details: HepG2, 5 h; cited from earlier work
[5] = system: mitochondrial membrane potential in HepG2 cells; experiment: qHTS MMP assay, primary screen; assay type: cell-based, Human
[6] = system: mitochondrial membrane potential in HepG2 cells; experiment: MMP assay, powder compound confirmation, fluorescence plate reader; assay type: cell-based, Human

## Cl.N=C1C=CC(=C(c2ccc(N)cc2)c2ccc(N)cc2)C=C1 [Basic red 9 (p-Rosaniline HCl), p-Rosaniline HCl]
[1]
  Compound potency (IC50) LDH Release 5 h: negative
[2]
  Relative percentage OCR 30 Sec: −9.78 ± 16.86%
  Relative percentage OCR 1 h: 35.74 ± 2.42%
[3]
  induction of caspase 3/7: negative

## CN(C)c1ccc(C(=C2C=CC(=[N+](C)C)C=C2)c2ccc(N(C)C)cc2)cc1 [Hexamethyl-p-rosaniline chloride]
[1]
  Compound potency (IC50) LDH Release 1 h: Inconclusive
  Compound potency (IC50) LDH Release 5 h: cytotoxic
[1]; Homo sapiens, HepG2, 5 h, read-out: Compound potency (IC50) LDH Release 5 h
  IC50: 56.1 µM
[2]
  Relative percentage OCR 30 Sec: 132.56 ± 3.88%
  Relative percentage OCR 1 h: 105.01 ± 1.65%
  Effect on OCR / FCCP-uncoupled OCR (in words): immediate uncoupling
[4]
  activation of caspase 9: seems to activate caspase 9
[3]
  induction of caspase 3/7: induced caspase 3/7

## CN(C)c1ccc(C(=C2C=CC(=[N+](C)C)C=C2)c2ccccc2)cc1.CN(C)c1ccc(C(=C2C=CC(=[N+](C)C)C=C2)c2ccccc2)cc1.O=C(O)C(=O)O.O=C([O-])C(=O)O.O=C([O-])C(=O)O [Malachite green oxalate]
[5]
  Primary screen outcome (MMP decrease) 1 h: positive
  Primary screen outcome (MMP decrease) 5 h: positive
[1]
  Compound potency (IC50) LDH Release 1 h: Inactive
  Compound potency (IC50) LDH Release 5 h: cytotoxic
[2]
  Relative percentage OCR 30 Sec: 163.81 ± 17.5%
  Relative percentage OCR 1 h: 97.14 ± 3.09%
  Effect on OCR / FCCP-uncoupled OCR (in words): immediate uncoupling
[3]
  induction of caspase 3/7: induced caspase 3/7

## COc1cc(C2Oc3cc([C@H]4Oc5cc(O)cc(O)c5C(=O)[C@@H]4O)ccc3OC2CO)ccc1O (stereo partly shown) [Silibinin]
[6]; HepG2, powder compound confirmation, 5 h, mean ± SD, 4 independent experiments
  Compound potency (IC50) Fluorescence readout 5 h: weakly active
[6]; Homo sapiens, HepG2, 5 h, read-out: efficacy (maximal response)
  Emax: 38.1%
[2]
  Relative percentage OCR 30 Sec: 92.67 ± 0.69%
  Relative percentage OCR 1 h: 95.66 ± 0.46%
  Effect on OCR / FCCP-uncoupled OCR (in words): significantly suppressed the FCCP uncoupled rates
